Measured values: patent US9586986B2, “Substituted 7-deazapurine ribonucleosides for therapeutic uses” (Institute of Organic Chemistry and Biochemistry ASCR, v.v.i., priority 2014, dated 2017)

Tests used:
Type in all cases: cell-based
HCT116 = test: Cytostatic/cytotoxic MTT assay, HCT116; conditions: Homo sapiens, HCT-116; 72 h incubation; read-out: MTT, IC50 HCT116
From the text: (§1) Unless otherwise stated, all cells were purchased from the […] (ATCC). The CCRF-CEM line is derived from T lymphoblastic leukemia, evincing high chemosenzitivity, K562 represent cells from a […] patient sample with bcr-abl translocation, HCT116 is colorectal tumor cell line and its p53 gene knock-down counterpart (HCT116p53−/−, Horizon Discovery, UK) is a model of human cancers with p53 inactivation frequently associated with poor prognosis, A549 cell line is lung adenocarcinoma. The daunorubicin resistant subline of CCRF-CEM cells (CEM-DNR bulk) and paclitaxel resistant subline K562-TAX were selected in our laboratory by cultivation of maternal cell lines in increasing concentrations of daunorubicine or paclitaxel, respectively. The CEM-DNR cells overexpress mrp-1 and mdr-1 genes, while K562-TAX cells overexpress mdr-1 only. Both proteins belong to the family of ABC transporters and are involved in the primary and/or acquired multidrug resistance phenomenon (ref.: Gottesman, M. M.; Fojo, T.; Bates, S. E. Multidrug resistance in cancer: role of ATP-dependent transporters. Nat. Rev. Cancer. 2002, 2, 48-58. (b) Noskova, V.; Dzubak, P.; Kuzmina, G.; Ludkova, A.; Stehlik, D.; Trojanec, R.; Janostakova, A.; Korinkova, G.; Mihal, V.; Hajduch, M. In vitro chemoresistance profile and expression/function of MDR associated proteins in resistant cell lines derived from CCRF-CEM, K562, A549 and MDA MB 231 parental cells. Neoplasma 2002, 49, 418-425). Non-malignant MRC-5 and BJ cells, derived from normal human fibroblasts, were used as controls. The cells were maintained in Nunc/Corning 80 cm^2 plastic tissue culture flasks and cultured in cell culture medium (DMEM/RPMI 1640 with 5 g/L glucose, 2 mM glutamine, 100 U/mL penicillin, 100 µg/mL streptomycin, 10% fetal calf serum, and NaHCO3). Cell suspensions were prepared and diluted according to the particular cell type and the expected target cell density (25,000-30,000 cells/well based on cell growth characteristics). Cells were added by pipette (80 L) into 96-well microtiter plates. Inoculates were allowed a pre-incubation period of 24 h at 37° C. and 5% CO2 for stabilization. Four-fold dilutions, in 20-L aliquots, of the intended test concentration were added to the microtiter plate walls at time zero. All test compound concentrations were examined in duplicate. Incubation of the cells with the test compounds lasted for 72 h at 37° C., in a 5% CO2 atmosphere at 100% humidity. At the end of the incubation period, the cells were assayed using MTT. Aliquots (10 L) of the MTT stock solution (5 mg/ml) were pipetted into each well and incubated for another 1-4 h. After this incubation period the formazan produced was dissolved by addition of 100 µL/well of 10% aq SDS (pH 5.5), followed by a further incubation at 37° C. overnight. The optical density was measured at 540 nm. The IC50 value, the drug concentration inhibiting the cell growth by 50%, was calculated from appropriate dose-response curves.
(§2) In vitro cytotoxic/cytostatic activity final nucleosides 1-5 was initially evaluated against […] cell lines derived from human solid tumors including lung (A549 cells) and colon (HCT116 and HCT116p53−/−) carcinomas, as well as leukemia cell lines (CCRF-CEM, CEM-DNR, K562 and K562-TAX) and, for comparison, non-malignant BJ and MRC-5 fibroblasts. Concentrations inhibiting the cell growth by 50% (IC50) were determined using a quantitative metabolic staining with 3-(4,5-dimethylthiazol-2-yl)-2,5-diphenyltetrazolium bromide (MTT) (ref.: Denizot, F.; Lang, R. Rapid colorimetric assay for cell growth and survival: Modifications to the tetrazolium dye procedure giving improved sensitivity and reliability. J. Immunol. Meth. 1986, 89, 271-277) following a 3-day treatment.
(§3) Multidrug resistance is a major therapeutic problem in cancer chemotherapy. […]

K562 = test: Cytostatic/cytotoxic MTT assay, K562; conditions: Homo sapiens, K562; 72 h incubation; read-out: MTT, IC50 K562
From the text: as §1, §2

CEM-DNR-bulk = test: Cytostatic/cytotoxic MTT assay, CEM-DNR-bulk; conditions: Homo sapiens; daunorubicin resistant subline, 72 h; read-out: MTT, IC50 CEM-DNR-bulk
From the text: as §1, §2, §3

HeLa S3 = test: XTT cytotoxicity assay, HeLa S3; conditions: Homo sapiens, HeLa S3; 72 h incubation; read-out: XTT, IC50 HeLa S3
Experimental: HL-60, Hela S3 and HepG2 cell lines (ATCC) were grown in RPMI-1640 or DMEM medium supplemented with 10% fetal calf serum, […] of streptomycin, 200 U/mL of penicillin G and 4 mM glutamine in a humidified atmosphere containing 5% CO2 at 37° C. Sensitivity of these cell lines to the synthesized compounds was assessed with the use of XTT cell proliferation kit II (Roche Diagnostics GmbH, Mannheim, Germany) according to the manufacturer's instructions. Briefly, cells were seeded in a 96-well plate at a density of 10,000 cells per well (90 μL). After 24 h, 10 μL of the tested compounds were added to the culture media at desired concentration range and incubated for 72 h. After that 50 μL of the XTT solution was added (1 mg/mL XTT+0.383 mg/mL N-methyl dibenzopyrazine methyl sulfate). The absorbance was recorded at 495 nm following a 2 h-incubation with the dye. IC50 values were determined by non-linear regression method using GraphPad Prism version 5.00 for Windows (GraphPad Software, La Jolla, Calif., USA).
In addition, the anti-proliferative effect was tested against a human T-lymphoblastic leukemia line CCRF-CEM, promyelocytic leukemia HL-60 and cervical carcinoma HeLa S3 growing in liquid suspension. Cell viability was determined following a 3-day incubation using 2,3-bis-(2-methoxy-4-nitro-5-sulfophenyl)-2H-tetrazolium-5-carboxanilide (XTT) assay (ref.: Scudiero, D. A.; Shoemaker, R. H.; Paull, K. D.; Monks, A.; Tierney, S.; Nofziger, T. H.; Currens, M. J.; Seniff, D.; Boyd M. R. Evaluation of a Soluble Tetrazolium/Formazan Assay for Cell Growth and Drug Sensitivity in Culture Using Human and Other Tumor Cell Lines. Cancer Res. 1988, 48, 4827-4833).

K562-TAX = test: Cytostatic/cytotoxic MTT assay, K562-TAX; conditions: Homo sapiens, paclitaxel resistant subline, 72 h, read-out: MTT, IC50 K562-TAX
From the text: as §1, §2, §3

HCT116p53-/- = test: Cytostatic/cytotoxic MTT assay, HCT116p53-/-; conditions: Homo sapiens, HCT-116; 72 h incubation; read-out: MTT, IC50 HCT116 p53-/-
From the text: as §1, §2, §3

BJ = test: Cytostatic/cytotoxic MTT assay, BJ fibroblasts; conditions: Homo sapiens, non-malignant fibroblasts, 72 h, read-out: MTT, IC50 BJ
From the text: as §1, §2

Structure (SMILES)	IC50 (HCT116) [µM]	IC50 (K562) [µM]	IC50 (CEM-DNR-bulk) [µM]	IC50 (HeLa S3) [µM]	IC50 (K562-TAX) [µM]	IC50 (HCT116p53-/-) [µM]	IC50 (BJ) [µM]
Cc1ncnc2c1c(-c1cccs1)cn2[C@@H]1O[C@H](CO)[C@@H](O)[C@H]1O [Compound 5c, 4-Methyl-7-(β-D-ribofuranosyl)-5-(thiophen-2-yl)-7H-pyrrolo[2,3-d]pyrimidine]	> 20	> 20	> 20	> 15	> 20	> 20	> 100
C#Cc1cn([C@@H]2O[C@H](CO)[C@@H](O)[C@H]2O)c2ncnc(C)c12 [Compound 5g, 5-Ethynyl-4-methyl-7-(β-D-ribofuranosyl)-7H-pyrrolo[2,3-d]pyrimidine]	> 20	6.92	0.16	14.7	0.11	> 20	0.05
COc1ncnc2c1c(-c1ccoc1)cn2[C@@H]1O[C@H](CO)[C@@H](O)[C@H]1O [Compound 1b, 5-(Furan-3-yl)-4-methoxy-7-(β-D-ribofuranosyl)-7H-pyrrolo[2,3-d]pyrimidine]	0.11	0.19	> 20	1.79	2.82	0.13	28.8
CNc1ncnc2c1c(-c1ccsc1)cn2[C@@H]1O[C@H](CO)[C@@H](O)[C@H]1O [Compound 3d, 4-Methylamino-7-(β-D-ribofuranosyl)-5-(thiophen-3-yl)-7H-pyrrolo[2,3-d]pyrimidine]	> 20	> 20	> 20	> 20	> 20	> 20	> 100
CSc1ncnc2c1c(-c1ccoc1)cn2[C@@H]1O[C@H](CO)[C@@H](O)[C@H]1O [Compound 2b, 5-(Furan-3-yl)-4-methylsulfanyl-7-(β-D-ribofuranosyl)-7H-pyrrolo[2,3-d]pyrimidine]	0.04	0.06	> 20	5.39	3.25	0.1	98.8
COc1ncnc2c1c(I)cn2[C@@H]1O[C@H](CO)[C@@H](O)[C@H]1O [Compound 1h, 5-iodo-4-methoxy-7-(β-D-ribofuranosyl)-7H-pyrrolo[2,3-d]pyrimidine, reference compound]	> 20	> 20	> 20	14.3	14.8	> 20	91
COc1ncnc2c1c(-c1cc3ccccc3o1)cn2[C@@H]1O[C@H](CO)[C@@H](O)[C@H]1O [Compound 1f, 5-(Benzofuran-2-yl)-4-methoxy-7-(β-D-ribofuranosyl)-7H-pyrrolo[2,3-d]pyrimidine]	13.8	20.9	10.8	9.24	13.1	14.5	22.4
CNc1ncnc2c1c(-c1cccs1)cn2[C@@H]1O[C@H](CO)[C@@H](O)[C@H]1O [Compound 3c, 4-Methylamino-7-(β-D-ribofuranosyl)-5-(thiophen-2-yl)-7H-pyrrolo[2,3-d]pyrimidine]	> 20	> 20	> 20	> 20	> 20	> 20	> 100
CNc1ncnc2c1ccn2[C@@H]1O[C@H](CO)[C@@H](O)[C@H]1O [RC3, reference compound]	> 20	> 20	4.89	> 20	0.92	> 20	91.4
CSc1ncnc2c1c(-c1cccs1)cn2[C@@H]1O[C@H](CO)[C@@H](O)[C@H]1O [Compound 2c, 4-Methylsulfanyl-7-(β-D-ribofuranosyl)-5-(thiophen-2-yl)-7H-pyrrolo[2,3-d]pyrimidine]	> 20	11.6	> 20	1.96	> 20	> 20	96.9
CN(C)c1ncnc2c1c(I)cn2[C@@H]1O[C@H](CO)[C@@H](O)[C@H]1O [Compound 4h, 4-Dimethylamino-5-iodo-7-(β-D-ribofuranosyl)-7H-pyrrolo[2,3-d]pyrimidine]	0.09	0.07	0.1	0.19	0.05	0.12	45.7
CN(C)c1ncnc2c1c(-c1ccccc1)cn2[C@@H]1O[C@H](CO)[C@@H](O)[C@H]1O [Compound 4e, 4-Dimethylamino-5-phenyl-7-(β-D-ribofuranosyl)-7H-pyrrolo[2,3-d]pyrimidine]	> 20	> 20	> 20	> 20	> 20	> 20	> 100
CNc1ncnc2c1c(-c1ccoc1)cn2[C@@H]1O[C@H](CO)[C@@H](O)[C@H]1O [Compound 3b, 5-(Furan-3-yl)-4-methylamino-7-(β-D-ribofuranosyl)-7H-pyrrolo[2,3-d]pyrimidine]	> 20	> 20	> 20	> 20	> 20	> 20	96.3
C#Cc1cn([C@@H]2O[C@H](CO)[C@@H](O)[C@H]2O)c2ncnc(OC)c12 [Compound 1g, 5-Ethynyl-4-methoxy-7-(β-D-ribofuranosyl)-7H-pyrrolo[2,3-d]pyrimidine]	4.06	0.3	3.49	1.73	0.38	5.14	98.4
